From PubChem BioAssay AID2305 (GlaxoSmithKline (GSK), 2010)

tested on: P. falciparum 3D7 growth, pLDH absorbance; experiment: P. falciparum 3D7 growth inhibition, dose response, strain 3D7 (AID 2305)

How did the IC50 turn out when `Cc1cccc2[nH]c(-c3ccc(-c4ccc(NC(=O)C(C)CN5CCN(C)CC5)cc4)s3)nc12` (configuration not stated) was run?
Its IC50 is 730 nM.

Which IC50 does the source give for `O=S(=O)(NCCN1CCCC1)c1ccc(-c2ccc(CNCc3ccccc3)cc2)cc1` here?
Its IC50 is 780 nM.

`CCCCCCNC(=O)C1Cc2c([nH]c3cc(Cl)ccc23)C2(CCN(Cc3ccccc3)CC2)N1` (configuration not stated) was tested. Which IC50 did it give?
The IC50 was 900 nM.

With `COc1ccc(Br)cc1C1Nc2ccc3ccccc3c2C2=C1C(=O)CC(c1ccccc1)C2` (configuration not stated) as the molecule, how does the IC50 read?
The IC50 was 590 nM.

For `O=C(Cn1c(=O)oc2ccccc21)N1CCC(n2c(=O)n(CCCN3CCOCC3)c3ccccc32)CC1`, which IC50 is on record?
Its IC50 is 770 nM.

How did the IC50 turn out when `COC(=O)c1ccc(CC(C)NCC(O)c2cccc(OC(F)(F)F)c2)cc1` (configuration not stated) was run?
The IC50 was 860 nM.

With `CCNc1cc(C(=O)N[C@@H](Cc2ccccc2)[C@H](O)CN[C@H](C)c2ccccc2)cc(N2CCCC2=O)c1` as the molecule, how does the IC50 read?
Its IC50 is 50 nM.

How did the IC50 turn out when `Cc1cnc(C(=O)Nc2cccc(-c3ccc(-c4nc5ccc(C(F)(F)F)cc5[nH]4)s3)c2)cn1` was run?
Its IC50 is 700 nM.

Which IC50 does the source give for `COc1ccc2ccccc2c1CCCCN1CCN(CC(c2ccc(F)cc2)N2CCC2)CC1` (configuration not stated) here?
The IC50 was 760 nM.

With `COc1cc(C(=O)N2CCOC(CCN3CC[C@@H]4c5ccccc5C[C@@H]43)(c3ccc(Cl)c(Cl)c3)C2)cc(OC)c1OC` (some centres not stated) as the molecule, how does the IC50 read?
The IC50 was 530 nM.

With `COc1cc(Nc2ccnc3cc(-c4ccncc4)ccc23)cc(OC)c1OC` as the molecule, how does the IC50 read?
Its IC50 is 1080 nM.

For `O=C(Nc1ccc(Cl)cc1)Nc1ccc(OCC(O)CN2CCCCC2)cc1` (configuration not stated), which IC50 is on record?
The IC50 was 1160 nM.

With `COc1c(C(=O)NC2CCN(Cc3ccccc3)C2)cnc2ccccc12` (configuration not stated) as the molecule, how does the IC50 read?
The IC50 was 960 nM.

Which IC50 does the source give for `NCCNc1ccc([N+](=O)[O-])cc1C(=O)Nc1cccc(Cl)c1` here?
The IC50 was 1260 nM.

For `COc1ccc(C(=O)c2ccc3[nH]cc(C4=CCN(C)CC4)c3c2)cc1`, which IC50 is on record?
The IC50 was 1050 nM.

`COc1ccc(CNCCCCCNCc2ccc(Cl)c(Cl)c2)cc1Cl` was tested. Which IC50 did it give?
The IC50 was 750 nM.

With `O=C(c1ccc(-c2cccc(-c3nc4ccc(F)cc4[nH]3)c2)cc1)N1CCCCC1CN1CCC(O)C1` (configuration not stated) as the molecule, how does the IC50 read?
Its IC50 is 1400 nM.

`O=C(/C=C/c1ccc(Cl)cc1)NCCCCCN1CCC(C(=O)Nc2ccc(Cl)cc2)CC1` was tested. Which IC50 did it give?
The IC50 was 830 nM.

Which IC50 does the source give for `CC1CC(C)CN(S(=O)(=O)c2cc(C(=O)Nc3cccc([N+](=O)[O-])c3)ccc2Br)C1` (configuration not stated) here?
Its IC50 is 900 nM.

For `COc1ccc2c(c1)[nH]c1c(/C=C/c3ccc([N+](=O)[O-])cc3)nccc12`, which IC50 is on record?
The IC50 was 860 nM.

With `CCN(CC)CCN1C(=O)C(O)(c2ccccc2Cl)c2c1cc(C#N)cc2C(F)(F)F` (configuration not stated) as the molecule, how does the IC50 read?
Its IC50 is 950 nM.

Which IC50 does the source give for `Cc1cc(N)c2cc(NC(=O)/C=C/c3ccc([N+](=O)[O-])cc3)ccc2n1` here?
The IC50 was 670 nM.

Which IC50 does the source give for `COc1ccc(C(=O)CC(=O)c2ccc(OC)cc2OC)c(OC)c1` here?
Its IC50 is 300 nM.

How did the IC50 turn out when `Clc1ccc(Cc2nc3ccccc3[nH]2)cc1Cl` was run?
Its IC50 is 250 nM.

How did the IC50 turn out when `O=C(/C=C/c1ccccc1Cl)Nc1ccc(Br)c(OCCN2CCN(CCN3CCCC3)CC2)c1` was run?
The IC50 was 650 nM.

With `Cc1[nH]c2cc(Cl)ccc2c1C1=CCN(CCCCC2(C)C(=O)Nc3c(F)cccc32)CC1` (configuration not stated) as the molecule, how does the IC50 read?
The IC50 was 840 nM.

`CC(CN1CCN(C)CC1)C(=O)Nc1cccc(-c2ccc(-c3nc4ccccc4[nH]3)s2)c1` (configuration not stated) was tested. Which IC50 did it give?
Its IC50 is 630 nM.

`CN(C(=O)c1nn(-c2ccccn2)c2nccc(-c3cccs3)c12)C1CCCCC1` was tested. Which IC50 did it give?
The IC50 was 1240 nM.

`COc1ccccc1N1CCN(CCCCNC(=O)c2ccc(NC(=O)c3ccc(C(F)(F)F)cc3)cc2)CC1` was tested. Which IC50 did it give?
Its IC50 is 300 nM.

`CC(Cc1ccc(NC(=O)[C@@H](C)NCCc2cccc(Cl)c2)cc1)NCCc1cccc(Cl)c1` (some centres not stated) was tested. Which IC50 did it give?
The IC50 was 780 nM.

Which IC50 does the source give for `O=C(NC1CCC(CN2CCC(c3c[nH]c4ccccc34)CC2)CC1)c1cc(-c2ccc(F)cc2F)ccc1O` (configuration not stated) here?
The IC50 was 360 nM.

`CC(=O)Nc1cccc(C(=O)Nc2cccc(-c3cccc(-c4nc5ccc(F)cc5[nH]4)c3)c2)c1` was tested. Which IC50 did it give?
The IC50 was 550 nM.

With `O=C(N[C@@H](Cc1ccccc1)C(=O)NCCN1CCCCC1)c1ccc(O)c(-c2cccc(C(F)(F)F)c2)c1` as the molecule, how does the IC50 read?
Its IC50 is 850 nM.

With `CCN(CC)CCOC(=O)c1ccc(NC(=O)c2cc(-c3ccc(C)cc3)nc3ccccc23)cc1` as the molecule, how does the IC50 read?
The IC50 was 780 nM.

Which IC50 does the source give for `COc1ccc(C[C@H](N)C(=O)N[C@H]2[C@@H](O)[C@H](n3cnc4c(N(C)C)ncnc43)O[C@@H]2CO)cc1` here?
The IC50 was 300 nM.

How did the IC50 turn out when `CN(C)c1ccc(CN2CCCCC(NC(=O)c3cc(-c4ccccc4Cl)cs3)C2)cc1` (configuration not stated) was run?
The IC50 was 1060 nM.

For `O=C(/C=C/c1ccc(Cl)c(Cl)c1)NC1CCN(CCCNC(=O)c2cccc(Cl)c2)CC1`, which IC50 is on record?
The IC50 was 660 nM.
